Data on two compounds can be found in US20120277440A1, “IMINO DERIVATIVES, PROCESS FOR PREPARATION THEREOF, AND IN[…]” (MEIJI SEIKA PHARMA CO., LTD., priority 2010, published 2012).

`CCS(=O)(=O)N=C1SCCN1Cc1ccc(Cl)nc1` showed a melting point of 125 to 126 °C.

Consider `CC(=O)N=C1SCCN1Cc1ccc(Cl)nc1`, for which the melting point is 76 to 78 °C.

Broadly, the melting point is the temperature of the solid-liquid transition.
